# The source made the active and inactive calls. No cut-off for these calls is given here.
# Assays:
# Hepatitis B virus [1] = experiment: Antiviral activity against Hepatitis B virus infected in human HepG2.215 cells assessed as inhibition of HBsAg secretion after 3 days by ELISA; format: functional, organism-based; conditions: HepG2.2.15, 72 h
# Hepatitis B virus [2] = experiment: Antiviral activity against Hepatitis B virus infected in human HepG2.215 cells assessed as inhibition of HBeAg secretion after 3 days by ELISA; format: functional, organism-based; conditions: HepG2.2.15, 72 h
# [3] = Cytotoxicity against human HepG2.215 cells assessed as reduction in cell viability after 3 days by MTT assay; format: cell-based, HepG2 2.2.15; conditions: HepG2.2.15 cells
# [4] = Selectivity index, ratio of CC50 for human HepG2.215 cells to IC50 for Hepatitis B virus infected in human HepG2.215 cells assessed as inhibition of HBsAg secretion; format: toxicity, cell-based; conditions: HepG2.2.15 cells (Hepatitis B virus infected), read-out: Ratio CC50/IC50
# [5] = Selectivity index, ratio of CC50 for human HepG2.215 cells to IC50 for Hepatitis B virus infected in human HepG2.215 cells assessed as inhibition of HBeAg secretion; format: toxicity, cell-based; conditions: HepG2.2.15 cells (Hepatitis B virus infected), read-out: Ratio CC50/IC50
# Hepatitis B virus [6] = experiment: Antiviral activity against Hepatitis B virus infected in human HepG2.215 cells assessed as reduction in cellular viral DNA level at 25 uM after 9 days by real time QF-PCR analysis relative to control; format: functional; conditions: for inhibition at 25 µM: HepG2.2.15, 216 h
# [7] = Selectivity index, ratio of CC50 for human HepG2.215 cells to IC50 for Hepatitis B virus infected in human HepG2.215 cells assessed as reduction in covalently closed circular DNA level; format: toxicity, cell-based; conditions: HepG2.2.15 cells (Hepatitis B virus infected), read-out: Ratio CC50/IC50
# Hepatitis B virus [8] = experiment: Antiviral activity against Hepatitis B virus infected in human HepG2.215 cells assessed as reduction in covalently closed circular DNA level after 9 days by real time QF-PCR analysis; format: functional, organism-based; conditions: HepG2.2.15, 216 h
# Hepatitis B virus [9] = experiment: Antiviral activity against Hepatitis B virus infected in human HepG2.215 cells assessed as inhibition of HBeAg secretion by measuring FITC-labeled monoclonal mouse HBeAg antibody non-labeled cells level at 6.25 uM after 3 days by flow cytometry (reference value: 0.5%); format: functional; conditions: HepG2.2.15, 72 h
# Hepatitis B virus [10] = experiment: Antiviral activity against Hepatitis B virus infected in human HepG2.215 cells assessed as inhibition of HBeAg secretion by measuring FITC-labeled monoclonal mouse HBeAg antibody non-labeled cells level at 12.5 uM after 3 days by flow cytometry (reference value: 0.5%); format: functional; conditions: HepG2.2.15, 72 h
# Hepatitis B virus [11] = experiment: Antiviral activity against Hepatitis B virus infected in human HepG2.215 cells assessed as inhibition of HBeAg secretion by measuring FITC-labeled monoclonal mouse HBeAg antibody non-labeled cells level at 25 uM after 3 days by flow cytometry (reference value: 0.5%); format: functional; conditions: HepG2.2.15, 72 h
Compound,IC50 (Hepatitis B virus [1]),IC50 (Hepatitis B virus [2]),IC50 (Hepatitis B virus [8]),CC50 at 72 h [3],selectivity ratio [4],selectivity ratio [5],inhibition (Hepatitis B virus [6]),inhibition at 25 µM (Hepatitis B virus [6]),selectivity ratio [7],inhibition at 6.25 µM (Hepatitis B virus [9]),inhibition at 12.5 µM (Hepatitis B virus [10]),inhibition at 25 µM (Hepatitis B virus [11])
Nc1ccn([C@H]2CS[C@@H](CO)O2)c(=O)n1,917 µM,1440 µM,,876 µM,,,,92.8%,,,,
C[C@H]1[C@H](C)CC[C@]2(C(=O)O)CC[C@]3(C)C(=CC[C@@H]4[C@@](C)(CCC(=O)O)[C@H](C(C)(C)O)CC[C@]43C)[C@H]12,406 µM,384 µM,,461 µM,1.13,1.2,,,,,,
C[C@H]1[C@H](C)CC[C@]2(C(=O)O)CC[C@]3(C)C(=CC[C@@H]4[C@@]5(C)CCC(=O)OC(C)(C)[C@@H]5CC[C@]43C)[C@H]12,284 µM,176 µM,,406 µM,1.43,2.3,,,,,,
C[C@H]1C(=O)CC[C@@H]2[C@]1(C)CC[C@H]1[C@@]2(C)CC[C@@]2(C)[C@@H]3CC(C)(C)CC[C@]3(C)CC[C@]12C [FRIEDELINE],1210 µM,1250 µM,,1790 µM,1.48,1.43,,,,,,
CC(C)(O)[C@@H]1CC[C@]2(C)[C@H](C(=O)C=C3[C@@H]4C[C@@](C)(C(=O)O)CC[C@]4(C)CC[C@]32C)[C@@]1(C)CCC(=O)O,259 µM,257 µM,12.3 µM,2040 µM,7.87,7.95,,91.4%,166,,,
C[C@H]1[C@H](C)CC[C@]2(C(=O)O)CC[C@]3(C)C(=CC[C@@H]4[C@@]5(C)CC[C@H](O)C(C)(C)[C@@H]5CC[C@]43C)[C@H]12 [URSOLIC ACID],1360 µM,897 µM,,1540 µM,1.13,1.72,,,,,,
CC1(C)CC[C@]2(C(=O)O)CC[C@]3(C)C(=CC[C@@H]4[C@@]5(C)CC[C@H](O)C(C)(C)[C@@H]5CC[C@]43C)[C@@H]2C1 [OLEANOLIC_ACID],1360 µM,814 µM,,731 µM,0.53,0.9,,,,,,
"C[C@H]1OC(=O)CC[C@@H]2[C@]1(C)CC[C@H]1[C@@]2(C)CC[C@@]2(C)[C@@H]3CC(C)(C)CC[C@]3(C)CC[C@]12C [FRIEDELIN-3,4-LACTONE]",765 µM,790 µM,,482 µM,0.63,0.61,,,,,,

# More lines, in order of falling IC50 (Hepatitis B virus [1]), values ahead:
IC50 (Hepatitis B virus [1]),IC50 (Hepatitis B virus [2]),IC50 (Hepatitis B virus [8]),Compound,CC50 at 72 h [3],selectivity ratio [4],selectivity ratio [5],inhibition (Hepatitis B virus [6]),inhibition at 25 µM (Hepatitis B virus [6]),selectivity ratio [7],inhibition at 6.25 µM (Hepatitis B virus [9]),inhibition at 12.5 µM (Hepatitis B virus [10]),inhibition at 25 µM (Hepatitis B virus [11])
883 µM,925 µM,,CC1(C)CC[C@]2(C(=O)O)CC[C@]3(C)C(Br)(CC[C@@H]4[C@@]5(C)CCC(=O)C(C)(C)[C@@H]5CC[C@]43C)[C@@H]2C1 (some centres not stated),100 µM,0.11,0.1,,,,,,
510 µM,806 µM,,CC1(C)[C@@H](O)CC[C@]2(C)[C@H]3C(=O)C=C4[C@@H]5C[C@@](C)(C(=O)O)CC[C@]5(C)CC[C@@]4(C)[C@]3(C)CC[C@@H]12 [ENOXOLONE],650 µM,1.27,0.81,,,,,,
360 µM,0.86 µM,32.7 µM,CC1(C)CC[C@]2(C(=O)O)CC[C@]3(C)C(=CC[C@@H]4[C@@]5(C)CCC(=O)OC(C)(C)[C@@H]5CC[C@]43C)[C@@H]2C1,477 µM,1.32,> 200,,81.6%,14.5,6.2%,10.6%,34%
340 µM,112 µM,,CC1(C)CC[C@@]23CC[C@]4(C)[C@@](OC2=O)([C@@H]3C1)[C@@H](O)C[C@@H]1[C@@](C)(CCC(=O)O)[C@H](C(C)(C)O)CC[C@]14C,452 µM,1.32,4.04,Active,,,,,
321 µM,0.14 µM,33.5 µM,CC1(C)CC[C@]2(C(=O)O)CC[C@]3(C)C(=CC(=O)[C@@H]4[C@@]5(C)CCC(=O)OC(C)(C)[C@@H]5CC[C@]43C)[C@@H]2C1,583 µM,1.81,> 200,,82.6%,17.4,7.7%,7.8%,33.5%
305 µM,92.3 µM,,CC1(C)CC[C@]2(C(=O)O)CC[C@]3(C)C(Br)(CC[C@@H]4[C@@]5(C)CCC(=O)OC(C)(C)[C@@H]5CC[C@]43C)[C@@H]2C1 (some centres not stated),485 µM,1.59,5.21,,,,,,
286 µM,149 µM,,CC1(C)CC[C@@]23CC[C@]4(C)[C@@](OC2=O)([C@@H]3C1)[C@@H](O)C[C@@H]1[C@@]2(C)CCC(=O)OC(C)(C)[C@@H]2CC[C@]14C,540 µM,1.57,3.03,Active,,,,,
171 µM,81.9 µM,,CC1(C)OC(=O)CC[C@]2(C)[C@H]3C(=O)C=C4[C@@H]5C[C@@](C)(C(=O)O)CC[C@]5(C)CC[C@@]4(C)[C@]3(C)CC[C@@H]12,546 µM,3.2,6.67,Active,,,,,
